Measurements as given in US11358952B2, “Substituted 4-aminoisoindoline-1,3-dione compounds, compositions thereof, and methods of treatment therewith” (Celgene Corporation, priority 2018, dated 2022).

system: SU-DHL-4 cell line; test: SU-DHL-4 cell proliferation assay (Cell Titer-Glo viability); type: cell-based; conditions: Homo sapiens; cell viability IC50 activity level, DLBCL cell line SU-DHL-4, 120 hours post-treatment; read-out: SU-DHL-4 Act
Outline: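 Viability read by ATP luminescence (Cell Titer-Glo) at the start and after 120 h of growth at 37°C in 5% CO2. DLBCL cells were seeded at 500 per well with compound across 0.5 nM–10 μM in 20 points, 0.1% DMSO. A four-parameter sigmoidal fit gave IC50 as 50% of DMSO control.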

SMILES	IC50 [nM]
CCC1CN(Cc2ccc(CNc3cccc4c3C(=O)N(C3CCC(=O)NC3=O)C4=O)cc2)C1 (stereo not shown) [Cpd 112, 2-(2,6-dioxopiperidin-3-yl)-4-(4-((3-ethylazetidin-1-yl)methyl)benzylamino)isoindoline-1,3-dione]	200 to 500
O=C1CCC(N2C(=O)c3cccc(NCc4ccc(CN5CC(N6CCCC6)C5)cc4)c3C2=O)C(=O)N1 (stereo not shown) [Cpd 216, 2-(2,6-dioxopiperidin-3-yl)-4-(4-((3-(pyrrolidin-1-yl)azetidin-1-yl)methyl)benzylamino)isoindoline-1,3-dione]	< 200
NC(=O)c1ccc(N2CCN(Cc3ccc(CNc4cccc5c4C(=O)N([C@@H]4CCC(=O)NC4=O)C5=O)c(F)c3)CC2)nc1 [Cpd 206, (R)-6-(4-(4-((2-(2,6-dioxopiperidin-3-yl)-1,3-dioxoisoindolin-4-ylamino)methyl)-3-fluorobenzyl)piperazin-1-yl)nicotinamide]	< 200
Cc1cc(CNc2cccc3c2C(=O)N(C2CCC(=O)NC2=O)C3=O)ccc1CN1CC2(CCCO2)C1 (stereo not shown) [Cpd 232, 4-(4-(5-oxa-2-azaspiro[3.4]octan-2-ylmethyl)-3-methylbenzylamino)-2-(2,6-dioxopiperidin-3-yl)isoindoline-1,3-dione]	< 200
O=C1CCC(N2C(=O)c3cccc(NCc4ccc(CN5CCC(Oc6ccccn6)CC5)cc4)c3C2=O)C(=O)N1 (stereo not shown) [Cpd 132, 2-(2,6-dioxopiperidin-3-yl)-4-(4-((4-(pyridin-2-yloxy)piperidin-1-yl)methyl)benzylamino)isoindoline-1,3-dione]	751 to 1000
Cc1cc(CNc2cccc3c2C(=O)N(C2CCC(=O)NC2=O)C3=O)ccc1CN1CCN(c2cccc(C(N)=O)n2)CC1 (stereo not shown) [Cpd 182, 6-(4-(4-((2-(2,6-dioxopiperidin-3-yl)-1,3-dioxoisoindolin-4-ylamino)methyl)-2-methylbenzyl)piperazin-1-yl)picolinamide]	< 200
N#Cc1cccc(N2CCN(Cc3ccc(CNc4cccc5c4C(=O)N(C4CCC(=O)NC4=O)C5=O)cc3)CC2)n1 (stereo not shown) [Cpd 138, 6-(4-(4-((2-(2,6-dioxopiperidin-3-yl)-1,3-dioxoisoindolin-4-ylamino)methyl)benzyl)piperazin-1-yl)picolinonitrile]	501 to 750
Cc1cc(CNc2cccc3c2C(=O)N(C2CCC(=O)NC2=O)C3=O)ccc1CN1CC(N2C3CCC2COC3)C1 (stereo not shown) [Cpd 247, 4-(4-((3-(3-oxa-8-azabicyclo[3.2.1]octan-8-yl)azetidin-1-yl)methyl)-3-methylbenzylamino)-2-(2,6-dioxopiperidin-3-yl)isoindoline-1,3-dione]	< 200
Cc1cc(CNc2cccc3c2C(=O)N(C2CCC(=O)NC2=O)C3=O)ccc1CN1CCC(C)(C)CC1 (stereo not shown) [Cpd 42, 4-(4-((4,4-dimethylpiperidin-1-yl)methyl)-3-methylbenzylamino)-2-(2,6-dioxopiperidin-3-yl)isoindoline-1,3-dione]	< 200
N#Cc1ccc(N2CCN(Cc3ccc(CNc4cccc5c4C(=O)N(C4CCC(=O)NC4=O)C5=O)cc3)CC2)nc1 (stereo not shown) [Cpd 29, 6-(4-(4-((2-(2,6-dioxopiperidin-3-yl)-1,3-dioxoisoindolin-4-ylamino)methyl)benzyl)piperazin-1-yl)nicotinonitrile]	200 to 500
O=C1CCC(N2C(=O)c3cccc(NCc4ccc(CN5CC(C(F)(F)F)C5)cc4)c3C2=O)C(=O)N1 (stereo not shown) [Cpd 117, 2-(2,6-dioxopiperidin-3-yl)-4-(4-((3-(trifluoromethyl)azetidin-1-yl)methyl)benzylamino)isoindoline-1,3-dione]	200 to 500
CC(C)S(=O)(=O)C1CCN(Cc2ccc(CNc3cccc4c3C(=O)N(C3CCC(=O)NC3=O)C4=O)c(F)c2)CC1 (stereo not shown) [Cpd 174, 2-(2,6-dioxopiperidin-3-yl)-4-(2-fluoro-4-((4-(isopropylsulfonyl)piperidin-1-yl)methyl)benzylamino)isoindoline-1,3-dione]	< 200
O=C1CCC(N2C(=O)c3cccc(NCc4ccc(CN5CCC(C6CCOCC6)CC5)cc4F)c3C2=O)C(=O)N1 (stereo not shown) [Cpd 215, 2-(2,6-dioxopiperidin-3-yl)-4-(2-fluoro-4-((4-(tetrahydro-2H-pyran-4-yl)piperidin-1-yl)methyl)benzylamino)isoindoline-1,3-dione]	< 200
CC1(C)COCCN1C1CN(Cc2ccc(CNc3cccc4c3C(=O)N(C3CCC(=O)NC3=O)C4=O)c(F)c2)C1 (stereo not shown) [Cpd 237, 4-(4-((3-(3,3-dimethylmorpholino)azetidin-1-yl)methyl)-2-fluorobenzylamino)-2-(2,6-dioxopiperidin-3-yl)isoindoline-1,3-dione]	< 200
CC(C)C1CCN(Cc2ccc(CNc3cccc4c3C(=O)N(C3CCC(=O)NC3=O)C4=O)c(F)c2)CC1 (stereo not shown) [Cpd 103, 2-(2,6-dioxopiperidin-3-yl)-4-(2-fluoro-4-((4-isopropylpiperidin-1-yl)methyl)benzylamino)isoindoline-1,3-dione]	< 200
O=C1CCC(N2C(=O)c3cccc(NCc4ccc(CN5CC6(CCOCC6)C5)cc4F)c3C2=O)C(=O)N1 (stereo not shown) [Cpd 221, 4-(4-(7-oxa-2-azaspiro[3.5]nonan-2-ylmethyl)-2-fluorobenzylamino)-2-(2,6-dioxopiperidin-3-yl)isoindoline-1,3-dione]	< 200

SMILES	IC50 [nM]
O=C1CCC(N2C(=O)c3cccc(NCc4ccc(CN5CCC(C6CCOCC6)CC5)cc4)c3C2=O)C(=O)N1 (stereo not shown) [Cpd 213, 2-(2,6-dioxopiperidin-3-yl)-4-(4-((4-(tetrahydro-2H-pyran-4-yl)piperridin-1-yl)methyl)benzylamino)isoindoline-1,3-dione]	< 200
O=C1CCC(N2C(=O)c3cccc(NCc4ccc(CN5Cc6ccccc6C5)cc4)c3C2=O)C(=O)N1 (stereo not shown) [Cpd 163, 2-(2,6-dioxopiperidin-3-yl)-4-(4-(isoindolin-2-ylmethyl)benzylamino)isoindoline-1,3-dione]	< 200
Cc1cc(CNc2cccc3c2C(=O)N(C2CCC(=O)NC2=O)C3=O)ccc1CN1CCC2(CCC2)CC1 (stereo not shown) [Cpd 46, 4-(4-(7-azaspiro[3.5]nonan-7-ylmethyl)-3-methylbenzylamino)-2-(2,6-dioxopiperidin-3-yl)isoindoline-1,3-dione]	< 200
O=C1CCC(N2C(=O)c3cccc(NCc4ccc(CN5CCN(c6ncccc6F)CC5)cc4)c3C2=O)C(=O)N1 (stereo not shown) [Cpd 30, 2-(2,6-dioxopiperidin-3-yl)-4-(4-((4-(3-fluoropyridin-2-yl)piperazin-1-yl)methyl)benzylamino)isoindoline-1,3-dione]	< 200
CCC1(O)CCN(Cc2ccc(CNc3cccc4c3C(=O)N(C3CCC(=O)NC3=O)C4=O)cc2)CC1 (stereo not shown) [Cpd 88, 2-(2,6-dioxopiperidin-3-yl)-4-(4-((4-ethyl-4-hydroxypiperidin-1-yl)methyl)benzylamino)isoindoline-1,3-dione]	501 to 750
NC(=O)c1cccc(N2CCN(Cc3ccc(CNc4cccc5c4C(=O)N(C4CCC(=O)NC4=O)C5=O)c(F)c3)CC2)n1 (stereo not shown) [Cpd 184, 6-(4-(4-((2-(2,6-dioxopiperidin-3-yl)-1,3-dioxoisoindolin-4-ylamino)methyl)-3-fluorobenzyl)piperazin-1-yl)picolinamide]	< 200
C[C@@H]1CN(c2ccc(C#N)cc2Cl)CCN1Cc1ccc(CNc2cccc3c2C(=O)N(C2CCC(=O)NC2=O)C3=O)cc1 (stereo partly drawn) [Cpd 62, 3-chloro-4-((3R)-4-(4-((2-(2,6-dioxopiperidin-3-yl)-1,3-dioxoisoindolin-4-ylamino)methyl)benzyl)-3-methylpiperazin-1-yl)benzonitrile]	< 200
NC(=O)c1cccc(N2CCN(Cc3ccc(CNc4cccc5c4C(=O)N(C4CCC(=O)NC4=O)C5=O)cc3)CC2)n1 (stereo not shown) [Cpd 181, 6-(4-(4-((2-(2,6-dioxopiperidin-3-yl)-1,3-dioxoisoindolin-4-ylamino)methyl)benzyl)piperazin-1-yl)picolinamide]	< 200
CN(C)C(=O)c1ccc(N2CCN(Cc3ccc(CNc4cccc5c4C(=O)N(C4CCC(=O)NC4=O)C5=O)cc3)CC2)cn1 (stereo not shown) [Cpd 55, 5-(4-(4-((2-(2,6-dioxopiperidin-3-yl)-1,3-dioxoisoindolin-4-ylamino)methyl)benzyl)piperazin-1-yl)-N,N-dimethylpicolinamide]	200 to 500
O=C1CCC(N2C(=O)c3cccc(NCc4ccc(CN5CCC(OC(F)(F)F)CC5)cc4)c3C2=O)C(=O)N1 (stereo not shown) [Cpd 123, 2-(2,6-dioxopiperidin-3-yl)-4-(4-((4-(trifluoromethoxy)piperidin-1-yl)methyl)benzylamino)isoindoline-1,3-dione]	200 to 500
CC(N1CCN(Cc2ccc(CNc3cccc4c3C(=O)N(C3CCC(=O)NC3=O)C4=O)cc2)CC1)C(F)(F)F (stereo not shown) [Cpd 71, 2-(2,6-dioxopiperidin-3-yl)-4-(4-((4-(1,1,1,-trifluoropropan-2-yl)piperazin-1-yl)methyl)benzylamino)isoindoline-1,3-dione]	< 200
Cc1cc(CNc2cccc3c2C(=O)N(C2CCC(=O)NC2=O)C3=O)ccc1CN1CC(N2CCCC2)C1 (stereo not shown) [Cpd 217, 2-(2,6-dioxopiperidin-3-yl)-4-(3-methyl-4-((3-(pyrrolidin-1-yl)azetidin-1-yl)methyl)benzylamino)isoindoline-1,3-dione]	< 200
CN1CCC2(CCN(Cc3ccc(CNc4cccc5c4C(=O)N(C4CCC(=O)NC4=O)C5=O)c(F)c3)CC2)C1=O (stereo not shown) [Cpd 151, 2-(2,6-dioxopiperidin-3-yl)-4-(2-fluoro-4-((2-methyl-1-oxo-2,8-diazaspiro[4.5]decan-8-yl)methyl)benzylamino)isoindoline-1,3-dione]	< 200
O=C1CCC(N2C(=O)c3cccc(NCc4ccc(CN5CCC(n6cccn6)CC5)c(F)c4)c3C2=O)C(=O)N1 (stereo not shown) [Cpd 106, 4-(4-((4-(1H-pyrazol-1-yl)piperidin-1-yl)methyl)-3-fluorobenzylamino)-2-(2,6-dioxopiperidin-3-yl)isoindoline-1,3-dione]	200 to 500
O=C1CCC(N2C(=O)c3cccc(NCc4ccc(CN5CCC(F)(c6ccccn6)CC5)cc4F)c3C2=O)C(=O)N1 (stereo not shown) [Cpd 168, 2-(2,6-dioxopiperidin-3-yl)-4-(2-fluoro-4-((4-fluoro-4-(pyridin-2-yl)piperidin-1-yl)methyl)benzylamino)isoindoline-1,3-dione]	< 200
